Assay: xn = mol fraction of the nth substance listed
Conditions: Liquid; for viscosity: Capillary tube (Ostwald / Ubbelohde) method; for mass density: Siemens Coriolis flowmeter

CCCCCCCCCC(=O)OC [methyl decanoate] + CCCCCCC
Conditions	mass density, 298.15 K [kg/m3]	mass density, 308.15 K [kg/m3]	mass density, 318.15 K [kg/m3]	viscosity, 298.15 K [mPa·s]	viscosity, 308.15 K [mPa·s]	viscosity, 318.15 K [mPa·s]
100 kPa, x1 = 0.101	706	698	689	0.465	0.394	0.339
100 kPa, x1 = 0.202	730	722	713	0.549	0.454	0.375
100 kPa, x1 = 0.299	753	744	736	0.655	0.52	0.418
100 kPa, x1 = 0.403	773	765	757	0.779	0.613	0.486
100 kPa, x1 = 0.501	792	784	776	0.912	0.716	0.565
100 kPa, x1 = 0.601	810	801	793	1.071	0.843	0.669
100 kPa, x1 = 0.698	826	818	809	1.257	0.999	0.8
100 kPa, x1 = 0.799	841	833	825	1.461	1.173	0.951
100 kPa, x1 = 0.902	855	847	839	1.67	1.351	1.104
100 kPa, x1 = 1	868	860	853	1.934	1.628	1.38
3000 kPa, x1 = 0.101	709	700	692	0.483	0.411	0.355
3000 kPa, x1 = 0.202	734	724	717	0.575	0.475	0.394
3000 kPa, x1 = 0.299	756	747	739	0.686	0.547	0.441
3000 kPa, x1 = 0.403	776	767	760	0.815	0.644	0.514
3000 kPa, x1 = 0.501	795	786	778	0.955	0.752	0.597
3000 kPa, x1 = 0.601	812	804	796	1.119	0.885	0.704
3000 kPa, x1 = 0.698	828	820	812	1.31	1.045	0.84
3000 kPa, x1 = 0.799	843	835	827	1.52	1.224	0.995
3000 kPa, x1 = 0.902	857	849	841	1.735	1.407	1.152
3000 kPa, x1 = 1	870	–	854	1.992	–	1.417
3010 kPa, x1 = 1	–	862	–	–	1.675	–
6000 kPa, x1 = 0.101	712	703	696	0.502	0.428	0.371
6000 kPa, x1 = 0.202	736	727	720	0.599	0.496	0.414
6000 kPa, x1 = 0.299	758	750	742	0.717	0.574	0.465
6000 kPa, x1 = 0.403	779	770	763	0.851	0.676	0.541
6000 kPa, x1 = 0.501	798	789	781	0.996	0.789	0.629
6000 kPa, x1 = 0.601	815	806	799	1.166	0.926	0.74
6000 kPa, x1 = 0.698	831	822	815	1.364	1.091	0.88
6000 kPa, x1 = 0.799	846	837	830	1.58	1.276	1.039
6000 kPa, x1 = 0.902	859	851	843	1.8	1.463	1.199
6000 kPa, x1 = 1	872	864	856	2.058	1.727	1.462
9000 kPa, x1 = 0.101	715	706	699	0.519	0.446	0.386
9000 kPa, x1 = 0.202	739	730	723	0.623	0.518	0.433
9000 kPa, x1 = 0.299	761	752	745	0.746	0.6	0.489
9000 kPa, x1 = 0.403	781	773	765	0.886	0.707	0.569
9000 kPa, x1 = 0.501	800	792	784	1.038	0.825	0.661
9000 kPa, x1 = 0.601	817	809	801	1.214	0.967	0.776
9000 kPa, x1 = 0.698	833	825	817	1.417	1.138	0.919
9000 kPa, x1 = 0.799	848	840	832	1.639	1.327	1.083
9000 kPa, x1 = 0.902	861	853	846	1.865	1.519	1.247
9000 kPa, x1 = 1	874	866	859	2.123	1.779	1.491
12000 kPa, x1 = 0.101	718	709	702	0.537	0.463	0.402
12000 kPa, x1 = 0.202	742	733	726	0.647	0.539	0.452
12000 kPa, x1 = 0.299	764	755	748	0.776	0.626	0.512
12000 kPa, x1 = 0.403	784	775	768	0.922	0.739	0.596
12000 kPa, x1 = 0.501	802	794	787	1.079	0.862	0.692
12000 kPa, x1 = 0.601	819	811	804	1.261	1.009	0.812
12000 kPa, x1 = 0.698	835	827	820	1.471	1.184	0.959
12000 kPa, x1 = 0.799	850	842	834	1.698	1.378	1.126
12000 kPa, x1 = 0.902	863	856	848	1.93	1.575	1.295
12000 kPa, x1 = 1	877	869	861	2.209	1.835	1.534
15000 kPa, x1 = 0.101	720	712	705	0.555	0.48	0.418
15000 kPa, x1 = 0.202	744	736	729	0.671	0.561	0.472
15000 kPa, x1 = 0.299	766	758	751	0.806	0.653	0.536
15000 kPa, x1 = 0.403	786	778	771	0.958	0.771	0.624
15000 kPa, x1 = 0.501	805	797	789	1.121	0.898	0.724
15000 kPa, x1 = 0.601	822	814	806	1.308	1.051	0.847
15000 kPa, x1 = 0.698	837	829	822	1.524	1.23	0.998
15000 kPa, x1 = 0.799	852	844	837	1.757	1.429	1.17
15000 kPa, x1 = 0.902	865	858	850	1.995	1.631	1.343
15000 kPa, x1 = 1	878	871	863	2.272	1.888	1.578

From the NIST ThermoML archive (doi:10.1016/j.tca.2018.10.018)
